# Laboratory results as given in patent publication US6251903A, “Alkyl, azido, alkoxy, and fluoro-substituted and fused quinoxalinediones and the use thereof as glycine receptor antagonist” (priority 2000, dated 2001).
# Like-named read-outs stand apart in the source and are kept apart here.
# How the values were obtained:
# [1] = tested on: glycine binding site of the NMDA receptor; conditions: literature, cited from earlier work
# [2] = tested on: mice; experiment: anticonvulsant activity in maximum electroshock seizure (MES) experiments in mice; assay type: in vivo, male Swiss/Webster mice; conditions: for ED50 as an anticonvulsant in the MES experiment in mice: route not stated; for ED100 / ED50: Mus musculus; for ED50: read-out: ED50 (MES)
# Procedure: The seizure stimulus parameters were: 50 mA, 60 Hz, rectangular pulse, width 0.8 msec, duration 200 msec. Tonic hind limb extension observed after application of the electrical stimulus was recorded as occurrence of seizure. The drug was applied i.v. as an aqueous Tris (Tromethamine) solution.
# [3] = molecular target: glycine binding site (Rattus norvegicus, UniProt P35439); experiment: affinity for the glycine binding site / glycine/NMDA receptor (Ki; method not stated)
# Text: (§1) The binding affinities of quinoxaline-2,3-diones at NMDA receptor glycine sites also were estimated by electrophysiological assays with either cloned rat NMDA receptors expressed in Xenopus oocytes, or non-NMDA receptors expressed in oocytes by whole rat brain poly(A)^+ RNA. […] For NMDA receptors Ki values were approximated by averaging values at three subtype combinations (NR1A/NR2A, NR1A/NR2B, and NR1A/NR2C).
# [4] = molecular target: NMDA receptor glycine sites; experiment: electrophysiological assay, cloned rat NMDA receptors expressed in Xenopus oocytes; assay type: cell-based; conditions: Table II; from electrophysiology using Xenopus oocytes
# Text: as §1
smiles,measurement,setting,value
"O=c1[nH]c2cc(Cl)c(Cl)cc2[nH]c1=O [6,7-dichloro-1,4-dihydroquinoxaline-2,3-dione]",glycine site antagonism or affinity (words),[1],competitive antagonist specific to the strychnine-insensitive [^3 H] glycine binding sites
same,glycine site antagonism or affinity (words),[1]; listed as drawing 6,"competitively displaced the strychnine-insensitive binding of [^3 H]glycine, without affecting the other binding sites on the NMDA receptor complex"
"O=c1[nH]c2cc(Cl)c(Cl)c([N+](=O)[O-])c2[nH]c1=O [6,7-dichloro-5-nitro-1,4-dihydroquinoxaline-2,3-dione, reference compound]",ED50 (MES),"[2]; Table IV, i.v.",4 to 5 mg/kg
same,ED100 (MES),"[2]; Table IV, i.v.",7 to 10 mg/kg
same,IV peak of action,"[2]; Table IV, i.v.",5 min
same,% protection after 60 min.,"[2]; i.v., 10 mg/kg",55%
same,ED50 as an anticonvulsant in the MES experiment in mice,[2],4 to 5 mg/kg
O=c1[nH]c2cc(Cl)cc(C(F)(F)F)c2[nH]c1=O [CF3 H Cl H],Ki,"[3]; Table IV, read-out: Ki",395 nM
same,ED100,"[2]; Table IV, i.v.",30 mg/kg
same,ED50,"[2]; Table IV, i.v.",10 mg/kg
same,IV peak of action,"[2]; Table IV, i.v.",30 min
same,% protection after 60 min.,"[2]; i.v., 30 mg/kg",87%
"O=c1[nH]c2ccc(C(F)(F)F)cc2[nH]c1=O [CF3, reference compound]",Ki,"[3]; Table I, read-out: Ki",360 nM
"N#Cc1c(Cl)c(Cl)cc2[nH]c(=O)c(=O)[nH]c12 [CN Cl Cl H, 5-Cyano-6,7-dichloro-1,4-dihydroquinoxaline-2,3-dione]",Ki,[4],15 nM
"N#Cc1c(Cl)c([N+](=O)[O-])cc2[nH]c(=O)c(=O)[nH]c12 [CN Cl NO2 H, 6-Chloro-5-cyano-7-nitro-1,4-dihydroquinoxaline-2,3-dione]",Ki,[4],50 nM
"N#Cc1ccc2nc(O)c(O)nc2c1 [CN, reference compound]",Ki,"[3]; Table I, read-out: Ki",4890 nM
O=c1[nH]c2cc(C(F)(F)F)cc(Cl)c2[nH]c1=O [Cl H CF3 H],Ki,"[3]; Table IV, read-out: Ki",320 nM
same,ED100,"[2]; Table IV, i.v.",20 to 25 mg/kg
same,ED50,"[2]; Table IV, i.v.",10 mg/kg
same,IV peak of action,"[2]; Table IV, i.v.",15 min
same,% protection after 60 min.,"[2]; i.v., 20 mg/kg",62%
"[N-]=[N+]=Nc1c(Cl)cc2[nH]c(=O)c(=O)[nH]c2c1Cl [Cl N3 Cl H, 6-azido-5,7-dichloro-1,4-dihydroquinoxaline-2,3-dione]",Ki,[4],536 nM
"CCc1cc(Br)cc2[nH]c(=O)c(=O)[nH]c12 [Et H Br H, 7-Bromo-5-ethyl-1,4-dihydroquinoxaline-2,3-dione]",Ki,[4],900 nM
Cc1cc2[nH]c(=O)c(=O)n(CC(=O)O)c2cc1C [Example 4a],glycine site antagonism or affinity (words),[1],functional antagonism
"Oc1nc2cc(F)c(Cl)c(F)c2nc1O [F Cl F H, 6-Chloro-5,7-difluoro-1,4-dihydroquinoxaline-2,3-dione]",Ki,[3],1000 nM
same,ED50,"[2]; iv, Table III, i.v. injection",10 mg/kg
"O=c1[nH]c2cc(F)c(F)c(F)c2[nH]c1=O [F F F H, 5,6,7-Trifluoro-1,4-dihydro-2,3-quinoxalinedione]",Ki,"[3]; Table III, read-out: Ki",2970 nM
same,ED50,"[2]; iv, Table III, i.v. injection",4 to 5 mg/kg
same,ED100,"[2]; Table IV, i.v.",15 to 20 mg/kg
same,ED50 (MES),"[2]; Table IV, i.v.",4 to 5 mg/kg
same,IV peak of action,"[2]; Table IV, i.v.",2 min
same,% protection after 60 min.,"[2]; i.v., 10 mg/kg",0%
same,protection against MES after 60 min.,"[2]; i.v., after 60 min",no more protection was observed
"O=c1[nH]c2ccc(F)cc2[nH]c1=O [F, reference compound]",Ki,"[3]; Table I, read-out: Ki",2880 nM
"O=c1[nH]c2cc3c(cc2[nH]c1=O)CCC3 [H CH2 CH2 CH2 H, Cyclopento[g]-1,4-dihydroquinoxaline-2,3-dione]",Ki,[4],6300 nM
"O=c1[nH]c2cc3ccccc3cc2[nH]c1=O [H CH=CHCH=CH H, 1,4-dihydrobenzo[g]quinoxaline-2,3-dione]",Ki,[4],11000 nM
"O=c1[nH]c2cc(F)c(F)cc2[nH]c1=O [H F F H, 6,7-Difluoro-1,4-dihydro-2,3-quinoxalinedione]",Ki,"[3]; Table III, read-out: Ki",8200 nM
same,ED50,"[2]; iv, Table III, i.v. injection",15 mg/kg
"Cc1cc2[nH]c(=O)c(=O)[nH]c2cc1C [H Me Me H, 6,7-Dimethyl-1,4-dihydroquinoxaline-2,3-dione]",Ki,[4],980 nM
"Oc1nc2ccccc2nc1O [H, reference compound]",Ki,"[3]; Table I, read-out: Ki",2470 nM
"Cc1cc(C)c2[nH]c(=O)c(=O)[nH]c2c1 [Me H Me H, 5,7-Dimethyl-1,4-dihydro-2,3-quinoxalinedione]",Ki,[4],1700 nM
"[N-]=[N+]=Nc1c(Cl)c(Cl)cc2[nH]c(=O)c(=O)[nH]c12 [N3 Cl Cl H, 5-Azido-6,7-dichloro-1,4-dihydroquinoxaline-2,3-dione]",Ki,[4],71 nM
"Nc1ccc2[nH]c(=O)c(=O)[nH]c2c1 [NH2, reference compound]",Ki,[3]; Table I,inactive
"O=c1[nH]c2cc(F)c(Br)c([N+](=O)[O-])c2[nH]c1=O [NO2 Br F H, 6-Bromo-7-Fluoro-5-nitro-1,4-dihydroquinoxaline-2,3-dione]",Ki,"[3]; Table III, read-out: Ki",43 nM
same,ED50,"[2]; iv, Table III, i.v. injection",3.5 mg/kg
"O=c1[nH]c2cc3c(c([N+](=O)[O-])c2[nH]c1=O)CCC3 [NO2 CH2 CH2 CH2 H, 5-Nitrocyclopento[g]-1,4-dihydroquinoxaline-2,3-dione]",Ki,[4],800 nM
"O=c1[nH]c2cc(F)c(Cl)c([N+](=O)[O-])c2[nH]c1=O [NO2 Cl F H, 6-Chloro-1,4-dihydro-7-fluoro-5-nitroquinoxaline-2,3-dione]",Ki,"[3]; Table III, read-out: Ki",180 nM
same,ED50,"[2]; iv, Table III, i.v. injection",4 to 5 mg/kg
"Cc1cc2[nH]c(=O)c(=O)[nH]c2c([N+](=O)[O-])c1Cl [NO2 Cl Me H, 6-Chloro-7-methyl-5-nitro-1,4-dihydroquinoxaline-2,3-dione]",Ki,[3],27 nM
same,ED50 as an anticonvulsant in the MES experiment in mice,[2],2 mg/kg
same,Ki,[4],27 nM
"O=c1[nH]c2cc(Cl)c(F)c([N+](=O)[O-])c2[nH]c1=O [NO2 F Cl H, 7-Chloro-6-fluoro-5-nitro-1,4-dihydroquinoxaline-2,3-dione]",Ki,"[3]; Table III, read-out: Ki",70 nM
same,ED50,"[2]; iv, Table III, i.v. injection",0.9 mg/kg
"O=c1[nH]c2cc(C(F)(F)F)cc([N+](=O)[O-])c2[nH]c1=O [NO2 H CF3 H, 7-trifluoromethyl-5-nitro-1,4-dihydroquinoxaline-2,3-dione]",Ki,"[3]; Table IV, read-out: Ki",95 nM
same,ED100,"[2]; Table IV, i.v.",40 mg/kg
same,ED50,"[2]; Table IV, i.v.",17 mg/kg
same,IV peak of action,"[2]; Table IV, i.v.",30 min
same,% protection after 60 min.,"[2]; i.v., 40 mg/kg",62%
"Cc1cc([N+](=O)[O-])c2[nH]c(=O)c(=O)[nH]c2c1 [NO2 H Me H, 7-Methyl-5-nitro-1,4-dihydro-2,3-quinoxalinedione]",Ki,[4],1200 nM
"Cc1c(F)cc2[nH]c(=O)c(=O)[nH]c2c1[N+](=O)[O-] [NO2 Me F H, 7-Fluoro-6-methyl-5-nitro-1,4-dihydro-2,3-quinoxalinedione]",Ki,[3],53 nM
same,ED50 (MES),"[2]; Table III, i.v. injection",2 mg/kg
same,ED50 as an anticonvulsant in the MES experiment in mice,[2],2 mg/kg
same,Ki,[4],53 nM
"[N-]=[N+]=Nc1c(F)cc2[nH]c(=O)c(=O)[nH]c2c1[N+](=O)[O-] [NO2 N3 F H, 6-Azido-7-fluoro-5-nitro-1,4-dihydroquinoxaline-2,3-dione]",Ki,"[3]; Table III, read-out: Ki",280 nM
same,ED50,"[2]; iv, Table III, i.v. injection",7.5 mg/kg
same,Ki,[4],280 nM
"CCOc1c(F)cc2[nH]c(=O)c(=O)[nH]c2c1[N+](=O)[O-] [NO2 OEt F H, 7-Fluoro-6-ethoxy-5-nitro-1,4dihydroquinoxaline-2,3-dione]",Ki,[4],1000 nM
"COc1c(F)cc2[nH]c(=O)c(=O)[nH]c2c1[N+](=O)[O-] [NO2 OMe F H, 7-Fluoro-6-methoxy-5-nitro-1,4-dihydroquinoxaline-2,3-dione]",Ki,[3],320 nM
same,ED50 (MES),"[2]; Table III, i.v. injection",7.5 mg/kg
same,Ki,[4],320 nM
"CCSc1c(Cl)cc2[nH]c(=O)c(=O)[nH]c2c1[N+](=O)[O-] [NO2 SEt Cl H, 7-Chloro-1,4-dihydro-6-ethylthio-5-nitroquinoxaline-2,3-dione]",Ki,[4],500 nM
"O=[N+]([O-])c1ccc2nc(O)c(O)nc2c1 [NO2, reference compound]",Ki,"[3]; Table I, read-out: Ki",1390 nM
